Laboratory results from ChEMBL document CHEMBL1201862, “PubChem BioAssay data set” (2004).
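Where inhibition never reached the appropriate level, the endpoint shown equals the highest concentration tested. Otherwise, values were interpolated linearly from a five-concentration, 48-hour dose response in 96-well plates. At the GI50, growth is halved.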 The source made the active and inactive calls. Cut-off read from the data, not from the text of the source: active = GI50 up to about 1.1 µM and inactive = higher.

How the values were obtained:
Assay in all cases: NCI tumour cell line growth inhibition, 48 h
786-0 = system: 786-0
A549 = system: A549
ACHN = system: ACHN
BT-549 = system: BT-549
EKVX = system: EKVX
HT-29 = system: HT-29
Hs-578T = system: Hs-578T
LOX IMVI = system: LOX IMVI
M14 = system: M14
NCI-H23 = system: NCI-H23
NCI-H460 = system: NCI-H460
NCI-H522 = system: NCI-H522
PC-3 = system: PC-3
RXF 393 = system: RXF 393
SF-295 = system: SF-295
SK-MEL-28 = system: SK-MEL-28
SK-MEL-5 = system: SK-MEL-5
T47D = system: T47D
U-251 = system: U-251
UO-31 = system: UO-31

| Structure (SMILES) | GI50 (786-0) | GI50 (A549) | GI50 (ACHN) | GI50 (BT-549) | GI50 (EKVX) | GI50 (HT-29) | GI50 (Hs-578T) | GI50 (LOX IMVI) | GI50 (M14) | GI50 (NCI-H23) | GI50 (NCI-H460) | GI50 (NCI-H522) | GI50 (PC-3) | GI50 (RXF 393) | GI50 (SF-295) | GI50 (SK-MEL-28) | GI50 (SK-MEL-5) | GI50 (T47D) | GI50 (U-251) | GI50 (UO-31) |
| --- | --- | --- | --- | --- | --- | --- | --- | --- | --- | --- | --- | --- | --- | --- | --- | --- | --- | --- | --- | --- |
| NCCc1c[nH]c2ccc(OC(=O)C(=O)O)cc12 | > 100 µM (inactive) | > 100 µM (inactive) | > 100 µM (inactive) | > 100 µM (inactive) | > 100 µM (inactive) | > 100 µM (inactive) | > 100 µM (inactive) | > 100 µM (inactive) | > 100 µM (inactive) | > 100 µM (inactive) | > 100 µM (inactive) | > 100 µM (inactive) | > 100 µM (inactive) | > 100 µM (inactive) | > 100 µM (inactive) | > 100 µM (inactive) | > 100 µM (inactive) | > 100 µM (inactive) | > 100 µM (inactive) | > 100 µM (inactive) |
| CC1C(c2ccc3c(c2)OCO3)c2cc3c(cc2OC1N1CCOCC1)OCO3 (stereo not given) | 31.6 µM (inactive) | 26.6 µM (inactive) | 32.6 µM (inactive) | 20 µM (inactive) | 37.3 µM (inactive) | 28.7 µM (inactive) | 14.1 µM (inactive) | 20.9 µM (inactive) | 24.7 µM (inactive) | 26.5 µM (inactive) | 29.2 µM (inactive) | 9.04 µM (inactive) | 25.9 µM (inactive) | 20.4 µM (inactive) | 24 µM (inactive) | 23.7 µM (inactive) | 17 µM (inactive) | 13.6 µM (inactive) | 19.1 µM (inactive) | 18.1 µM (inactive) |
| O=CC(O)C(O)C1OC(=O)c2cc(O)c(O)c(O)c2C2=C(O)C(O)=C3OC(=O)c4c(c(O)c(O)c5c4C3C2C(=O)O5)-c2c(cc(O)c(O)c2O)C(=O)OCC1O (stereo not given) | 16.3 µM (inactive) | 24.5 µM (inactive) | 44.2 µM (inactive) | > 100 µM (inactive) | 23.7 µM (inactive) | 15.7 µM (inactive) | 67.1 µM (inactive) | 13.6 µM (inactive) | 22.4 µM (inactive) | 78 µM (inactive) | 26.2 µM (inactive) | 35.6 µM (inactive) | 43.7 µM (inactive) | > 100 µM (inactive) | 26.4 µM (inactive) | 44.3 µM (inactive) | 25.9 µM (inactive) | 37.5 µM (inactive) | 19.2 µM (inactive) | 14.7 µM (inactive) |
| Cc1ccc(-c2cc(-c3ccco3)c(C#N)c(=S)[nH]2)cc1 | 77.3 µM (inactive) | 43.9 µM (inactive) | 35.6 µM (inactive) | 42.8 µM (inactive) | 90.6 µM (inactive) | 92.3 µM (inactive) | 38.5 µM (inactive) | 34.8 µM (inactive) | 63.8 µM (inactive) | 29.9 µM (inactive) | 46.2 µM (inactive) | 44.2 µM (inactive) | 28.3 µM (inactive) | 55.8 µM (inactive) | 38.7 µM (inactive) | 20.8 µM (inactive) | 22.8 µM (inactive) | 20.4 µM (inactive) | 21.4 µM (inactive) | 33.9 µM (inactive) |
| COc1cc(C2c3cc4c(cc3OC(N3CCCC3)C2C)OCO4)cc(OC)c1OC (stereo not given) | 0.729 µM (active) | 0.989 µM (active) | 1.47 µM (inactive) | 0.515 µM (active) | 3.53 µM (inactive) | 0.395 µM (active) | 0.445 µM (active) | 0.766 µM (active) | 0.34 µM (active) | 0.548 µM (active) | 0.767 µM (active) | 0.548 µM (active) | 0.524 µM (active) | 0.286 µM (active) | 0.303 µM (active) | 5.43 µM (inactive) | 0.344 µM (active) | 63.1 µM (inactive) | 0.644 µM (active) | 1.91 µM (inactive) |
| Cc1cc(N2CCOCC2)nc2ccc(Cc3ccc4nc(N5CCOCC5)cc(C)c4c3)cc12 | 32 µM (inactive) | 41.7 µM (inactive) | 48.5 µM (inactive) | 60.7 µM (inactive) | 20.7 µM (inactive) | 18.7 µM (inactive) | > 100 µM (inactive) | 32.4 µM (inactive) | 41.1 µM (inactive) | 54 µM (inactive) | 26.7 µM (inactive) | 26.5 µM (inactive) | 56.4 µM (inactive) | 25.9 µM (inactive) | 78.7 µM (inactive) | 39.4 µM (inactive) | 16.2 µM (inactive) | 14.6 µM (inactive) | 26.7 µM (inactive) | 38.2 µM (inactive) |
| Cc1ccc(NC(=O)CSc2nc(O)nc3[nH]cnc23)cc1 | 44.6 µM (inactive) | > 100 µM (inactive) | > 100 µM (inactive) | 54.5 µM (inactive) | > 100 µM (inactive) | > 100 µM (inactive) | 68.9 µM (inactive) | 35.6 µM (inactive) | > 100 µM (inactive) | > 100 µM (inactive) | > 100 µM (inactive) | > 100 µM (inactive) | 97.5 µM (inactive) | > 100 µM (inactive) | 62.7 µM (inactive) | > 100 µM (inactive) | 86.9 µM (inactive) | > 100 µM (inactive) | 41.1 µM (inactive) | > 100 µM (inactive) |
| CN/N=C(\C)C(CN(C)C)C(c1ccccc1)c1c(O)c2ccccc2oc1=O (stereo not given) | > 100 µM (inactive) | > 100 µM (inactive) | > 100 µM (inactive) | 24.3 µM (inactive) | > 100 µM (inactive) | > 100 µM (inactive) | > 100 µM (inactive) | > 100 µM (inactive) | > 100 µM (inactive) | > 100 µM (inactive) | > 100 µM (inactive) | > 100 µM (inactive) | > 100 µM (inactive) | 0.441 µM (active) | > 100 µM (inactive) | > 100 µM (inactive) | > 100 µM (inactive) | 18.7 µM (inactive) | > 100 µM (inactive) | > 100 µM (inactive) |
| N#CC(NCCc1ccccc1)c1ccccc1 (stereo not given) | > 100 µM (inactive) | > 100 µM (inactive) | > 100 µM (inactive) | > 100 µM (inactive) | > 100 µM (inactive) | > 100 µM (inactive) | > 100 µM (inactive) | > 100 µM (inactive) | > 100 µM (inactive) | > 100 µM (inactive) | > 100 µM (inactive) | > 100 µM (inactive) | > 100 µM (inactive) | > 100 µM (inactive) | > 100 µM (inactive) | > 100 µM (inactive) | > 100 µM (inactive) | > 100 µM (inactive) | > 100 µM (inactive) | > 100 µM (inactive) |
| CCOC(=O)Cc1nc2sc(S(N)(=O)=O)nn2c1Br | 23.2 µM (inactive) | 33 µM (inactive) | 27.2 µM (inactive) | 32.1 µM (inactive) | 26.6 µM (inactive) | 19.4 µM (inactive) | > 100 µM (inactive) | 16.1 µM (inactive) | 15.7 µM (inactive) | 27.6 µM (inactive) | 32 µM (inactive) | 19.1 µM (inactive) | 22 µM (inactive) | 21.7 µM (inactive) | > 100 µM (inactive) | 33.1 µM (inactive) | 16.1 µM (inactive) | 27.3 µM (inactive) | 15.3 µM (inactive) | 15.8 µM (inactive) |
| c1nc(N2CC2)c2cnn(C3CCCCO3)c2n1 (stereo not given) | > 100 µM (inactive) | > 100 µM (inactive) | > 100 µM (inactive) | > 100 µM (inactive) | > 100 µM (inactive) | > 100 µM (inactive) | > 100 µM (inactive) | > 100 µM (inactive) | > 100 µM (inactive) | > 100 µM (inactive) | > 100 µM (inactive) | > 100 µM (inactive) | > 100 µM (inactive) | > 100 µM (inactive) | > 100 µM (inactive) | > 100 µM (inactive) | > 100 µM (inactive) | > 100 µM (inactive) | > 100 µM (inactive) | > 100 µM (inactive) |
| CC(C)c1ccc2c(c1)/C(=C1/Nc3ccccc3C1=O)C(=O)N2 | 3.52 µM (inactive) | 15.3 µM (inactive) | 3.71 µM (inactive) | 18.1 µM (inactive) | 5.7 µM (inactive) | 26.8 µM (inactive) | 7.64 µM (inactive) | > 100 µM (inactive) | 33.6 µM (inactive) | 24.4 µM (inactive) | 9.27 µM (inactive) | 25.5 µM (inactive) | 8.85 µM (inactive) | 1.42 µM (inactive) | 14.8 µM (inactive) | > 100 µM (inactive) | 27.2 µM (inactive) | 0.557 µM (active) | 10.6 µM (inactive) | 6.5 µM (inactive) |
| CC(NNC(=O)c1cc[n+]([BH2-]C#N)cc1)c1cccc(C(F)(F)F)c1 (stereo not given) | > 100 µM (inactive) | 86.9 µM (inactive) | > 100 µM (inactive) | > 100 µM (inactive) | > 100 µM (inactive) | 82.2 µM (inactive) | 64.4 µM (inactive) | 71.6 µM (inactive) | 37.9 µM (inactive) | 27.4 µM (inactive) | 77.8 µM (inactive) | 4.55 µM (inactive) | 44 µM (inactive) | 60.1 µM (inactive) | 50.2 µM (inactive) | > 100 µM (inactive) | 72.1 µM (inactive) | 40.2 µM (inactive) | 88.7 µM (inactive) | 42 µM (inactive) |
| COc1cc2c(/C=C3/C(=O)N(c4ccccc4)c4ccccc43)c(Cl)[nH]c2cc1C | 3.15 µM (inactive) | 3.41 µM (inactive) | 3.44 µM (inactive) | 2.48 µM (inactive) | 3.6 µM (inactive) | 3.09 µM (inactive) | 4.56 µM (inactive) | 2.94 µM (inactive) | 3.18 µM (inactive) | 2.58 µM (inactive) | 2.73 µM (inactive) | 1.44 µM (inactive) | 2.94 µM (inactive) | 4.29 µM (inactive) | 2.85 µM (inactive) | 3.57 µM (inactive) | 2.32 µM (inactive) | 2.07 µM (inactive) | 3.24 µM (inactive) | 2.88 µM (inactive) |
